Experimental data as given in patent US9745287B2, “Pyrimidines and use thereof” (Purdue Pharma L.P., priority 2013, dated 2017).
Read-outs that look alike come from different tables or passages of the source.

What was measured:
human Nav1.7 = human Nav1.7 (Homo sapiens (Human), UniProt Q15858); assay: FLIPR or FLIPR TETRA sodium dye assay with KCl and test article pre-incubation; type: cell-based
hNav1.7 = hNav1.7 (Homo sapiens (Human), UniProt Q15858); assay: Electrophysiology (EP) assay, whole-cell patch clamp in hNav1.7 expressing HEK-293 cells; type: cell-based; details: affinity for inactivated state of hNav1.7, HEK-293; read-out: Nav1.7 Activity (μM) EP assay Ki
Procedure: Cells Manual Electrophysiology: The hNav1.7 expressing HEK-293 cells are plated on 35 mm culture dishes pre-coated with poly-D-lysine in standard DMEM culture media (Mediatech, Inc., Herndon, Va.) and incubated in a 5% CO2 incubator at 37° C. Cultured cells are used approximately 12-48 hours after plating.
Cells Automated Electrophysiology: The hNav1.7 expressing HEK-293 cells are plated on tissue culture flasks in standard DMEM culture media (Mediatech, Inc.) and incubated in a 5% CO2 incubator at 37° C. Cultured cells are used approximately 12-48 hours after plating.
Manual Electrophysiology: On the day of experimentation, the 35 mm dish is placed on the stage of an inverted microscope equipped with a perfusion system that continuously perfuses the culture dish with fresh recording media. A gravity driven superfusion system is used to apply test solutions directly to the cell under evaluation. This “shooter” system consists of an array of glass pipettes connected to a motorized horizontal translator. The outlet of the shooter is positioned approximately 100 μm from the cell of interest.
Whole cell currents are recorded using the whole-cell patch clamp configuration using an Axopatch 200B amplifier (Axon Instruments, Foster City, Calif.), 1322A A/D converter (Axon Instruments) and pClamp software (v. 8; Axon Instruments) and stored on a personal computer. Gigaseals are formed and the whole-cell configuration is established in voltage clamp mode, and membrane currents generated by hNav1.7 channels are recorded. Borosilicate glass pipettes with resistance values between 1.5 and 2.0 MΩ when filled with pipette solution are used and series resistance (<5 MΩ) is compensated by 75-80%. Signals are sampled at 50 kHz and low pass filtered at 3 kHz.
Automated Electrophysiology: On the day of experimentation, cells are prepared by removing media and digesting with appropriate enzymes to suspend cells in external solution.
Whole cell currents are recorded using the whole-cell patch clamp configuration using an Patchliner (Nanion Technologies, Munich Germany), EPC 10 quadro amplifiers (HEKA, Bellmore, N.Y.) and PatchControl HT 10905 (Nanion Technologies) and PatchMaster v2x73 software (HEKA) and stored on a personal computer. Gigaseals are formed and the whole-cell configuration is established in voltage clamp mode, and membrane currents generated by hNav1.7 are recorded. NPC-16 chips have resistance values between 1.0 and 2.0 MΩ when filled with pipette solution and series resistance (<5 MΩ). Signals are sampled at 25 kHz and low pass filtered at 3 kHz.
Voltage protocols Manual Electrophysiology: After establishing the whole-cell configuration in voltage clamp mode, voltage protocols are run to establish the 1) test potential (Vmax), 2) holding potential (Vh), and 3) the conditioning potential for each cell.
After establishing the whole-cell configuration in voltage clamp mode, a standard I-V protocol is run to determine the potential at which the maximal current (Imax) is elicited. This potential is the test potential (Vt). To determine a conditioning potential at which 100% of channels are in the inactivated state, a standard steady-state inactivation (SSIN) protocol is run using a series of fifteen 100 ms-long depolarizing prepulses, incrementing in 10 mV steps, immediately followed by a 5 ms testing pulse to Vmax. This protocol also permits determination of the holding potential at which all channels are in the resting state.
For compounds causing significant retardation of recovery from inactivation, an estimate of the affinity for the inactivated state of the channel (Ki) is generated using the following protocol. From the negative, no residual inactivation, holding potential, the cell is depolarized to the conditioning voltage for 2-5 seconds, returned to the negative holding potential for 10-20 ms to relieve fast inactivation and then depolarized to the test potential for ˜15 ms. […]

[1] = recombinant human Nav1.7 in HEK293, veratridine + scorpion venom

Chain of human Nav1.7 (Q15858 other isoform, or with tags, fused parts or gaps): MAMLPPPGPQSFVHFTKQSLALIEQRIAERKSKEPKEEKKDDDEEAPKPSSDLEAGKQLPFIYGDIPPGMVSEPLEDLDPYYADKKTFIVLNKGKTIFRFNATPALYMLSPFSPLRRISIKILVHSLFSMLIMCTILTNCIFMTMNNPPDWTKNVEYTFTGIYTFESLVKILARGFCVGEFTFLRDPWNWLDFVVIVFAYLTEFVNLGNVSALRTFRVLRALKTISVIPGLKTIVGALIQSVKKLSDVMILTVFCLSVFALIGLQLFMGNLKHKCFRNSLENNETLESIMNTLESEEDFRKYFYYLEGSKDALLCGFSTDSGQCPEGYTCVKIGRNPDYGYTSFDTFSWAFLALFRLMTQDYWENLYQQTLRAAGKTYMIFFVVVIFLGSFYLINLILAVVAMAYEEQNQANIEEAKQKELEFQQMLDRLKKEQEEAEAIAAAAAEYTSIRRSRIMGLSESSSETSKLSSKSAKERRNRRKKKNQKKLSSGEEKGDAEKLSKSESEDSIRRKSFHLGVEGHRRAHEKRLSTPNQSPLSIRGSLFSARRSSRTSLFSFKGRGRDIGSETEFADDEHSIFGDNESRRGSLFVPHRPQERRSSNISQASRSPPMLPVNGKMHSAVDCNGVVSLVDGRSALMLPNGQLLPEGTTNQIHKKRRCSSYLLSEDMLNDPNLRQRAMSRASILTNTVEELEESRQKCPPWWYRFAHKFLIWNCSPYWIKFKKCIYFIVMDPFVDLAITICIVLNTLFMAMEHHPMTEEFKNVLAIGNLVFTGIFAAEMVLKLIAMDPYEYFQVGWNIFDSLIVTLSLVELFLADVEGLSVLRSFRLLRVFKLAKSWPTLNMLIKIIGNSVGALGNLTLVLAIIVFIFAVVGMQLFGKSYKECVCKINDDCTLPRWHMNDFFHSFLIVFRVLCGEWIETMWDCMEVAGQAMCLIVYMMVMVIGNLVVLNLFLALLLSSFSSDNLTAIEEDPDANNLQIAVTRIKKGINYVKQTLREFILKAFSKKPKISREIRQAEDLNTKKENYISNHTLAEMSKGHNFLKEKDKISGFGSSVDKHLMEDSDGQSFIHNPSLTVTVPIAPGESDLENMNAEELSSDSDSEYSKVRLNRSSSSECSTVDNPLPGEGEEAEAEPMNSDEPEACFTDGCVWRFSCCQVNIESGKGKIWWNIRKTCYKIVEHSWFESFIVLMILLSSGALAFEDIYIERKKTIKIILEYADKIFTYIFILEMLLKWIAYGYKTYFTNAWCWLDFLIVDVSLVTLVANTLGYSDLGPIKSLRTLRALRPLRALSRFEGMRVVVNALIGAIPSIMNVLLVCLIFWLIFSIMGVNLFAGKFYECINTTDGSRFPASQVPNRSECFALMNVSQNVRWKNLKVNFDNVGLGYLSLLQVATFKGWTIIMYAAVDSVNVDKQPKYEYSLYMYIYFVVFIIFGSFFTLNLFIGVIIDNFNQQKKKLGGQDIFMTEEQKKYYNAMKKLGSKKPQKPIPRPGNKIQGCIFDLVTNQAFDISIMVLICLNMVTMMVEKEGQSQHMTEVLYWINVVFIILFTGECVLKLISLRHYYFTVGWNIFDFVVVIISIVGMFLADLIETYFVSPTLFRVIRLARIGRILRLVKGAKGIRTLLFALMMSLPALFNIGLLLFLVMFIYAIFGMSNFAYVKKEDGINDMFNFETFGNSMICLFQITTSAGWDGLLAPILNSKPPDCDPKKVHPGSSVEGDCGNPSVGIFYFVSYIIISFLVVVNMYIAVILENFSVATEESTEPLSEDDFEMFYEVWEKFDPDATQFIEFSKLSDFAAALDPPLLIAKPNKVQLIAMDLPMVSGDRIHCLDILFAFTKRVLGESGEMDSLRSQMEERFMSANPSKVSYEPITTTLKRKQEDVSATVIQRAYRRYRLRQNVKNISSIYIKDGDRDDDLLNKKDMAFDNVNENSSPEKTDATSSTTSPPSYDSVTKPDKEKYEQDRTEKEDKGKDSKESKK
Chain of hNav1.7 (Q15858 other isoform, or with tags, fused parts or gaps): as above

Compound: NC(=O)c1cc(CN[C@H]2CCNC2=O)nc(-c2ccc(Oc3ccc(C4CC4)cn3)cc2)n1 [Compound 14, (S)-2-(4-((5-cyclopropylpyridin-2-yl)oxy)phenyl)-6-(((2-oxopyrrolidin-3-yl)amino)-methyl)pyrimidine-4-carboxamide]
- IC50 (human Nav1.7; [1]): 3.39 ± 1.15 µM
- Ki (hNav1.7): 1.41 ± 0.231 µM

Compound: NC(=O)c1cc(CN[C@H]2CCNC2=O)nc(-c2ccc(Oc3ccc(Cl)cc3F)cc2)n1 [Compound 15]
- IC50 (human Nav1.7; [1]): 0.065 ± 0.01 µM
- Ki (hNav1.7): 0.041 ± 0.006 µM

Compound: NC(=O)c1cc(CN2CCC[C@H]2C(N)=O)nc(-c2ccc(Oc3ccc(C(F)(F)F)cc3)cc2)n1 [Compound 16, (S)-6-((2-carbamoylpyrrolidin-1-yl)methyl)-2-(4-(4-(trifluoro-methyl)phenoxy)phenyl)pyrimidine-4-carboxamide]
- IC50 (human Nav1.7; [1]): 0.085 ± 0.012 µM

Compound: NC(=O)c1cc(CN[C@H]2CCNC2=O)nc(-c2ccc(Oc3ccc(C(F)(F)F)cc3)cc2)n1 [Compound 20, (S)-6-(((2-oxopyrrolidin-3-yl)amino)methyl)-2-(4-(4-(trifluoromethyl)phenoxy)phenyl)pyrimidine-4-carboxamide]
- IC50 (human Nav1.7; [1]): 0.439 ± 0.023 µM

Compound: C[C@H](NCc1cc(C(N)=O)nc(-c2ccc(Oc3ccc(C(F)(F)F)cc3)cc2)n1)C(N)=O [Compound 21, (S)-6-(((1-amino-1-oxopropan-2-yl)amino)methyl)-2-(4-(4-(trifluoromethyl)phenoxy)phenyl)pyrimidine-4-carboxamide]
- IC50 (human Nav1.7; [1]): 0.042 ± 0.006 µM

Compound: CC(C)[C@H](NCc1cc(C(N)=O)nc(-c2ccc(Oc3ccc(C(F)(F)F)cc3)cc2)n1)C(N)=O [Compound 22, (S)-6-(((1-amino-3-methyl-1-oxobutan-2-yl)amino)methyl)-2-(4-(4-(trifluoromethyl)-phenoxy)phenyl)pyrimidine-4-carboxamide]
- IC50 (human Nav1.7; [1]): 0.2 ± 0.045 µM
- Ki (hNav1.7): 0.22 ± 0.034 µM

Compound: NC(=O)c1cc(CN[C@@H](CO)C(N)=O)nc(-c2ccc(Oc3ccc(C(F)(F)F)cc3)cc2)n1 [Compound 23, (S)-6-(((1-amino-3-hydroxy-1-oxopropan-2-yl)amino)methyl)-2-(4-(4-(trifluoromethyl)-phenoxy)phenyl)pyrimidine-4-carboxamide]
- IC50 (human Nav1.7; [1]): 0.2 ± 0.045 µM
- Ki (hNav1.7): 0.145 ± 0.044 µM

Compound: NC(=O)c1cc(CN2C[C@H](O)C[C@H]2C(N)=O)nc(-c2ccc(Oc3ccc(C(F)(F)F)cc3)cc2)n1 [Compound 24, 6-(((2S, 4R)-2-carbamoyl-4-hydroxypyrrolidin-1-yl)methyl)-2-(4-(4-(trifluoromethyl)-phenoxy)phenyl)pyrimidine-4-carboxamide]
- IC50 (human Nav1.7; [1]): 0.583 ± 0.056 µM
- Ki (hNav1.7): 0.342 ± 0.095 µM

Compound: NC(=O)c1cc(CN[C@H]2CCNC2=O)nc(-c2ccc(Oc3ccc(C(F)(F)F)cn3)cc2)n1 [Compound 26, (S)-6-(((2-oxopyrrolidin-3-yl)amino)methyl)-2-(4-((5-(trifluoromethyl)pyridin-2-yl)oxy)phenyl)pyrimidine-4-carboxamide]
- IC50 (human Nav1.7; [1]): 1.75 ± 0.6 µM
- Ki (hNav1.7): 0.662 ± 0.13 µM

Compound: NC(=O)c1cc(CN2CCNC(=O)C2)nc(-c2ccc(Oc3ccc(C(F)(F)F)cc3)cc2)n1 [Compound 27, 6-((3-oxopiperazin-1-yl)-methyl)-2-(4-(4-(trifluoro-methyl)phenoxy)phenyl)pyrimidine-4-carboxamide]
- IC50 (human Nav1.7; [1]): 0.072 ± 0.008 µM
- Ki (hNav1.7): 0.08 ± 0.027 µM

Compound: NC(=O)c1cc(CN2CCNC(=O)C2)nc(-c2ccc(Oc3ccc(C(F)(F)F)cn3)cc2)n1 [Compound 28, 6-((3-oxopiperazin-1-yl)-methyl)-2-(4-((5-(trifluoro-methyl)pyridin-2-yl)oxy)-phenyl)pyrimidine-4-carboxamide]
- IC50 (human Nav1.7): 2.45 ± 0.133 µM

Compound: O=C1NCC[C@@H]1NCc1cc([C@H](O)CO)nc(-c2ccc(Oc3ccc(OC(F)(F)F)cc3)cc2)n1 [Compound 40, (S)-3-(((6-((S)-1,2-dihydroxyethyl)-2-(4-(4-(trifluoromethoxy)phenoxy)phenyl)pyrimidin-4-yl)methyl)-amino)pyrrolidin-2-one]
- IC50 (human Nav1.7; [1]): 1.55 ± 0.215 µM
- Ki (hNav1.7): 2.68 ± 0.206 µM

Compound: O=C1CN(Cc2cc([C@H](O)CO)nc(-c3ccc(Oc4ccc(OC(F)(F)F)cc4)cc3)n2)CCN1 [Compound 41, (S)-4-((6-(1,2-dihydroxyethyl)-2-(4-(4-(trifluoromethoxy)-phenoxy)phenyl)pyrimidin-4-yl)methyl)piperazin-2-one]
- IC50 (human Nav1.7): 1.19 ± 0.11 µM
- Ki (hNav1.7): 0.875 ± 0.167 µM

Compound: NC(=O)c1cc(CO)nc(C2=CCC(Oc3ccc(C(F)(F)F)cc3)CC2)n1 (stereo not drawn) [Compound 54, 6-(hydroxymethyl)-2-(4-(4-(trifluoromethyl)phenoxy)cyclohex-1-en-1-yl)pyrimidine-4-carboxamide]
- IC50 (human Nav1.7; [1]): 0.242 ± 0.023 µM

Compound: NC(=O)c1cc(CN[C@@H]2CCNC2=O)nc(C2=CCC(Oc3ccc(C(F)(F)F)cc3)CC2)n1 (stereo partly drawn) [Compound 56, 6-((((R)-2-oxopyrrolidin-3-yl)amino)methyl)-2-(4-(4-(trifluoromethyl)phenoxy)cyclohex-1-en-1-yl)pyrimidine-4-carboxamide]
- IC50 (human Nav1.7; [1]): 0.544 ± 0.062 µM
- Ki (hNav1.7): 0.117 ± 0.01 µM

Compound: C[C@H](NCc1cc(C(N)=O)nc(C2=CCC(Oc3ccc(C(F)(F)F)cc3)CC2)n1)C(N)=O (stereo partly drawn) [Compound 57]
- IC50 (human Nav1.7; [1]): 0.557 ± 0.049 µM
- Ki (hNav1.7): 0.175 ± 0.039 µM

Compound: NC(=O)c1cc(CN[C@@H](CO)C(N)=O)nc(C2=CCC(Oc3ccc(C(F)(F)F)cc3)CC2)n1 (stereo partly drawn) [Compound 58, 6-((((S)-1-amino-3-hydroxy-1-oxopropan-2-yl)amino)-methyl)-2-(4-(4-(trifluoromethyl)-phenoxy)cyclohex-1-en-1-yl)pyrimidine-4-carboxamide]
- IC50 (human Nav1.7; [1]): 1.47 ± 0.091 µM
- Ki (hNav1.7): 0.524 ± 0.161 µM

Compound: NC(=O)c1cc(CN2CCNC(=O)C2)nc(C2=CCC(Oc3ccc(C(F)(F)F)cc3)CC2)n1 (stereo not drawn) [Compound 59, 6-((3-oxopiperazin-1-yl)-methyl)-2-(4-(4-(trifluoro-methyl)phenoxy)cyclohex-1-en-1-yl)pyrimidine-4-carboxamide]
- IC50 (human Nav1.7): 0.07 ± 0.003 µM
- Ki (hNav1.7): 0.059 ± 0.018 µM

Compound: CC1(C)C(=O)NCCN1Cc1cc(C(N)=O)nc(-c2ccc(Oc3ccc(C(F)(F)F)cn3)cc2)n1 [Compound 60, 6-((2,2-dimethyl-3-oxopiperazin-1-yl)methyl)-2-(4-((5-(trifluoromethyl)pyridin-2-yl)oxy)phenyl)pyrimidine-4-carboxamide]
- IC50 (human Nav1.7; [1]): > 20 µM

Compound: CC1(C)C(=O)NCCN1Cc1cc(C(N)=O)nc(-c2ccc(Oc3ccc(C(F)(F)F)cc3)cc2)n1 [Compound 61, 6-((2,2-dimethyl-3-oxopiperazin-1-yl)methyl)-2-(4-(4-(trifluoromethyl)phenoxy)-phenyl) pyrimidine-4-carboxamide]
- IC50 (human Nav1.7): 0.627 ± 0.022 µM

Compound: NC(=O)c1cc(CN2CC(=O)NC(=O)C2)nc(-c2ccc(Oc3ccc(C(F)(F)F)cc3)cc2)n1 [Compound 62, 6-((3,5-dioxopiperazin-1-yl)methyl)-2-(4-(4-(trifluoro-methyl)phenoxy)phenyl)pyrimidine-4-carboxamide]
- IC50 (human Nav1.7; [1]): 0.205 ± 0.006 µM

Compound: NC(=O)c1cc(CN2CC[C@@H](O)[C@H]2C(N)=O)nc(-c2ccc(Oc3ccc(C(F)(F)F)cc3)cc2)n1 [Compound 65, 6-(((2S,3R)-2-carbamoyl-3-hydroxypyrrolidin-1-yl)methyl)-2-(4-(4-(trifluoromethyl)-phenoxy)phenyl)pyrimidine-4-carboxamide]
- IC50 (human Nav1.7; [1]): 0.094 ± 0.008 µM
- Ki (hNav1.7): 0.046 ± 0.009 µM
